PubChem BioAssay (NCI)
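Test compounds were applied to cells in 96-well plates for 48 hours at 5 doses. TGI: concentration producing complete growth inhibition.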

Key:
Test in all cases: DTP human tumour cell line panel, 48 h
NCI-H226 lung = test system: NCI-H226 lung
MOLT-4 leukemia = test system: MOLT-4 leukemia
SNB-19 CNS = test system: SNB-19 CNS
OVCAR-8 ovarian = test system: OVCAR-8 ovarian
K-562 leukemia = test system: K-562 leukemia
IGROV1 ovarian = test system: IGROV1 ovarian
RPMI-8226 leukemia = test system: RPMI-8226 leukemia
MDA-MB-435 = test system: MDA-MB-435
NCI/ADR-RES ovarian = test system: NCI/ADR-RES ovarian
SN12C renal = test system: SN12C renal
SF-539 CNS = test system: SF-539 CNS
OVCAR-3 ovarian = test system: OVCAR-3 ovarian
SF-295 CNS = test system: SF-295 CNS
HT29 colon = test system: HT29 colon
NCI-H23 lung = test system: NCI-H23 lung
SF-268 CNS = test system: SF-268 CNS
HS 578T breast = test system: HS 578T breast
DU-145 prostate = test system: DU-145 prostate
HCT-116 colon = test system: HCT-116 colon
NCI-H522 lung = test system: NCI-H522 lung

Row | Structure (SMILES) | TGI (NCI-H226 lung) [µM] | TGI (MOLT-4 leukemia) [µM] | TGI (SNB-19 CNS) [µM] | TGI (OVCAR-8 ovarian) [µM] | TGI (K-562 leukemia) [µM] | TGI (IGROV1 ovarian) [µM] | TGI (RPMI-8226 leukemia) [µM] | TGI (MDA-MB-435) [µM] | TGI (NCI/ADR-RES ovarian) [µM] | TGI (SN12C renal) [µM] | TGI (SF-539 CNS) [µM] | TGI (OVCAR-3 ovarian) [µM] | TGI (SF-295 CNS) [µM] | TGI (HT29 colon) [µM] | TGI (NCI-H23 lung) [µM] | TGI (SF-268 CNS) [µM] | TGI (HS 578T breast) [µM] | TGI (DU-145 prostate) [µM] | TGI (HCT-116 colon) [µM] | TGI (NCI-H522 lung) [µM]
1 | COc1cc(N=NN(C)C)c(C(C)c2c3cc(OC)c(OC)cc3cc[n+]2C)cc1OC (stereo not given) | > 100 | > 100 | > 100 | > 100 | > 100 | > 100 | 70.4 | > 100 | > 100 | > 100 | 47.3 | > 100 | > 100 | > 100 | > 100 | > 100 | > 100 | > 100 | > 100 | 
2 | CCSC1=N/C(=C\c2ccccc2O)C(Nc2ccc(C)cc2)=N1 | > 100 | > 100 | > 100 | > 100 | > 100 | > 100 | > 100 | > 100 | > 100 | > 100 | > 100 | 67.3 | > 100 | > 100 | > 100 | > 100 | > 100 | > 100 | > 100 | 94.4
3 | CC[C@@]1(O)C(=O)OCc2c1cc1n(c2=O)Cc2c-1nc1ccccc1c2CC[Si](C)(C)C | < 0.0467 |  | > 100 | > 100 | > 100 | > 100 | 0.834 | > 100 | > 100 |  | 3.32 | 1.4 | 0.0544 | > 40.6 | 0.0213 |  | > 100 | > 100 | 0.116 | 1.55
4 | O=C(Cn1nc(Br)c(Br)c1Br)c1ccccc1 | 63.5 | 12.3 | > 100 | > 100 | 28.7 | > 100 |  | > 100 | 93.1 | > 100 | 45.1 | > 100 | 91.5 | 43.5 | 94.3 | > 100 | > 100 | > 100 | 38.6 | 83.6
5 | CC(C)OP(=O)(CN(C)/C(F)=N\C(F)(F)F)OC(C)C | > 100 | > 100 | > 100 | > 100 | > 100 | > 100 |  | > 100 | > 100 | > 100 | > 100 | > 100 | > 100 | > 100 | > 100 | > 100 | > 100 | > 100 | > 100 | > 100
6 | CC(C)CCC1(O)O[C@H]2C[C@H]3[C@@H]4CCC5CC(=O)C=C[C@]5(C)[C@H]4CC[C@]3(C)[C@H]2[C@@H]1C (stereo not given in full) | 14.8 | 7.15 | 31.3 | 30.5 | 19.3 | 30.3 | 21.4 | 24.5 | 33.1 | 28 | 31.7 | 22.9 | 24 | 26.9 | 14.8 | 28.2 | 7.31 | 28.2 | 19.3 | 3.8
7 | COP(C)(=O)/C(Cc1ccccc1)=N\O (stereo not given) | > 100 | > 100 | > 100 | > 100 | > 100 | > 100 | > 100 | > 100 | > 100 | > 100 |  | > 100 | > 100 | > 100 | > 100 |  | > 100 | > 100 | > 100 | 
8 | CCP(=O)(CC)C(Cl)(Cl)C(O)C(C)(C)C (stereo not given) | > 100 | > 100 | > 100 | > 100 | > 100 | > 100 | > 100 | > 100 | > 100 | > 100 |  | > 100 | > 100 | > 100 | > 100 |  | > 100 | > 100 | > 100 | > 100
9 | CC1(c2ccc(Cl)cc2)CC(c2ccc(Cl)cc2)=C(C#N)C(=C(C#N)C#N)N1 (stereo not given) | 75.8 | 60.3 | 39.6 | 34 | 66.2 | 28.8 | > 100 | 34.7 | 46.5 | 37.2 | 40.7 | 24.3 | 32.6 | > 100 | 34.7 | 22.6 | 50.3 | 28.2 | 31.7 | 
10 | C1COC(NC(C2CC2)C2CC2)=N1 | > 100 | > 100 | > 100 | > 100 | > 100 | > 100 | > 100 | > 100 | > 100 |  | > 100 | > 100 | > 100 | > 100 | > 100 |  | > 100 | > 100 | > 100 | > 100
11 | C/C(=N\Nc1ccc([N+](=O)[O-])cc1[N+](=O)[O-])c1ccc2ccccc2n1 | > 100 | > 100 | 94.4 | > 100 | > 100 | > 100 | > 100 | > 100 | > 100 | > 100 | > 100 |  | > 100 | > 100 | > 100 | > 100 | > 100 | > 100 | > 100 | 55.7
12 | CN(C)CCNc1ccc([N+](=O)[O-])c2nc3ccccc3c(N)c12 | > 10 | 4.74 | > 10 | > 10 | 5.35 | 2.78 | 1.51 | 2.61 | 2.45 | > 10 | 4.48 | 3.32 | 8.1 | 3.07 | 6.55 | 3.94 | 8.2 | > 10 | 1.91 | 
13 | CC(NS(C)(=O)=O)c1ccccc1 (stereo not given) | > 100 | > 100 | > 100 | > 100 | > 100 | > 100 | > 100 | > 100 | > 100 | > 100 | > 100 | > 100 | > 100 | > 100 | > 100 |  | > 100 | > 100 | > 100 | > 100
14 | CC1C(c2ccc3c(c2)OCO3)c2cc3c(cc2OC1N1CCCC1)OCO3 (stereo not given) |  | 69.9 | > 100 | > 100 | 61.4 | > 100 | 73.2 | 23.7 | 87.7 | > 100 | 50.9 | > 100 | > 100 | > 100 | > 100 | > 100 | 44.5 | > 100 | 54.8 | 80.4
15 | c1ccc(N=C2SC(=NNc3ccccc3)SC2=Nc2ccccc2)cc1 | > 100 | > 100 | > 100 | > 100 | > 100 | > 100 | > 100 | > 100 | > 100 | > 100 | > 100 |  | > 100 | > 100 | > 100 | > 100 | > 100 | > 100 | > 100 | > 100
16 | CC(C)C(C/C=C1/CC(CO)(COC(=O)CC(C(C)C)C(C)C)OC1=O)C(C)C (stereo not given) | 22.6 | 32.7 | 25.8 | 29.7 | > 36.3 | 31.1 |  | 16.9 | 31.6 | 31.9 | 23.8 | 26.7 | 16.5 | 30.5 | 29.9 | 23.1 | 2.29 | 26.3 | 35.1 | 26.5
17 | CC(=O)Nc1ncc(Sc2ccccc2C(=O)O)s1 | > 100 | > 100 | > 100 | > 100 | > 100 | > 100 | > 100 | > 100 | > 100 | > 100 | > 100 | > 100 | > 100 | > 100 | > 100 | > 100 | > 100 | > 100 | > 100 | 
18 | COc1ccc(Cc2nc3cc(C(F)(F)F)ccc3n2CCCN(C)C)cc1 | > 100 | 16.3 | > 100 | > 100 | 34.4 | 78.9 |  | 29.7 | 45.2 |  |  | 46.1 | 37.5 | 39.9 | 41.1 | 70.9 | 43.1 | 40.4 |  | 31.8
19 | O=P(O)(O)C(O)/C=C/c1ccccc1 (stereo not given) | > 100 | > 100 | > 100 | > 100 | > 100 | > 100 | > 100 | > 100 | > 100 | > 100 |  | > 100 | > 100 | > 100 | > 100 | > 100 | > 100 | > 100 | > 100 | > 100
20 | O=C1CCCc2c1c1c(n2Cc2ccccc2)-c2ccccc2C1=O | 66.1 |  | 41.1 | 34 | 46.6 | 72.1 | 24.3 | 38.2 | 50.1 | 45.5 | 48.6 | 36.7 | 37.5 | > 100 | 32.1 | 64.1 | 77.3 | > 100 | 31.1 | 33.8
21 | N#CCC(=O)Nn1c(CC#N)nnc1Cc1ccccc1 | > 100 | > 100 | > 100 | > 100 | > 100 | > 100 | > 100 | > 100 | > 100 |  | > 100 | > 100 | > 100 | > 100 | > 100 | > 100 | > 100 | > 100 | > 100 | > 100
22 | CCOc1ccccc1/C=C1\NC(=O)N(/C=C2\C(=O)Oc3ccccc3C2=O)C1=O | > 100 | 64.3 | > 100 | > 100 |  | > 100 |  | > 100 | > 100 | > 100 | > 100 | > 100 | > 100 | > 100 | 95.5 | > 100 | > 100 | > 100 | > 100 | > 100
23 | COC(=O)NCCc1[nH]nc2c1C(=O)C=C(Nc1ccccc1)C2=O |  | 54.4 | > 100 | 40.2 | > 100 | 65.2 | > 100 | 31.1 | 70.3 | > 100 | 52.4 | > 100 | > 100 | > 100 | 31.4 | > 100 | > 100 | > 100 | 54.9 | 28.6
24 | CC[N+]1(C)CCC(O)(c2ccc(Cl)cc2)C(C(=O)c2ccc(Cl)cc2)C1 (stereo not given) | 48.3 | 41.2 | 31.8 | > 100 | 17.2 | 47.9 |  | 40.6 | 57.1 | 37.5 |  | 43.3 |  | 94.4 | 38.5 | 58.8 | 38.3 | 34.4 | 46.7 | 3.51
25 | N#Cc1c(-c2ccccc2)/c(=C\O)c(=O)n2c1nc1ccccc12 | > 100 | > 100 | > 100 | > 100 | > 100 | > 100 | > 100 | > 100 | > 100 | > 100 | > 100 |  | > 100 | > 100 | > 100 | > 100 | 91.8 | > 100 | > 100 | > 100
